{
  "source": "paper PMC5389743",
  "about": "(Investigative Ophthalmology & Visual Science, 2017)",
  "origin": "cited, not measured here",
  "key": {"[1]": {"test_system": "α-chymotrypsin–induced rabbit glaucoma model", "details": "0.4% Δ^8-THC submicron emulsion, ocular hypertensive rabbits"}, "[2]": {"test_system": "normotensive rabbits", "details": "0.4% Δ^8-THC submicron emulsion, after 2 hours"}},
  "data": [
    {"compound": "CCCCCc1cc(O)c2c(c1)OC(C)(C)[C@@H]1CC=C(C)C[C@@H]21", "note": "[Δ^8-THC]", "values": [
      {"measurement": "Drop of IOP", "setting": "[1]", "result": "6.5 mm of Hg"},
      {"measurement": "Difference between the IOP with and without treatment", "setting": "[2]", "result": "2 mm of Hg"}
    ]}
  ]
}
